Experimental data as given in patent publication US20120101099A1, “HISTONE DEACETYLASE INHIBITORS” (ANTHEM BIOSCIENCES PRIVATE LIMITED, priority 2009, published 2012).
Structures can show the parent of a compound that is named as a salt. Where two headings read alike, the source gives them in different places.

Legend:
[1] = tested on: PC-3; assay: Cell proliferation assay (MTT); format: cell-based; conditions: Homo sapiens
Method: (§1) Cells were seeded in a 96-well cell culture plates at a concentration of 10,000 cells per well and incubated at 37° C. in CO2 incubator.
(§2) Twenty-four hours later cells were treated with different concentrations (100, 10, 1, 0.1, and 0.01 μM) of compound dissolved in DMSO and incubated for 48 hours. For To measurement, 24 hours after seeding the cells, 20 μL of 3-(4.5-dimethyl-2- thiazolyl)-2,5-diphenyl-2H-tetrazolium (MTT) solution per well was added to the T0 plate and incubated for 3 hours at 37° C. in a CO2 incubator.
(§3) The plate containing cells and test compounds was treated similarly after 48 hours of incubation. After 3 hours of MTT addition, well contents were aspirated carefully followed by addition of 100 μL DMSO per well. Plates were agitated to ensure dissolution of the formazan crystals in DMSO and absorbance was read at 570 nm (A570). […] From the percentage growths a dose response curve was generated and GI50 values were interpolated from the growth curves.

[2] = tested on: A549; assay: Cell proliferation assay (MTT); format: cell-based; conditions: Homo sapiens
Method: as §1, §2, §3

[3] = tested on: HT-29; assay: Cell proliferation assay (MTT); format: cell-based; conditions: Homo sapiens
Method: as §1, §2, §3

[4] = tested on: Ca Ski; assay: Anti-proliferative activity (GI50); format: cell-based; conditions: Homo sapiens, read-out: Anti-proliferative activity (GI50) Ca Ski
Method: as §1, §2, §3

[5] = tested on: PANC-1; assay: Anti-proliferative activity (GI50); format: cell-based; conditions: Homo sapiens
Method: as §1, §2, §3

[6] = tested on: MCF-7; assay: Anti-proliferative activity (GI50); format: cell-based; conditions: Homo sapiens
Method: as §1, §2, §3

[7] = Metabolic stability in mouse liver microsomes; format: in vitro ADME; conditions: 100 μM, 37° C.
Method: The objective of the study is to determine the metabolic stability of the compounds in mouse liver microsomes. Brief procedure: metabolic stability of test compounds were carried out using mouse liver microsomes. The final composition of the assay includes test compound 100 μM (dissolved in DMSO), mouse microsomal protein 0.5 mg/mL and cofactors (G-6-P 5.0 mM, G-6-PDH 0.06 U, MgCl2 2.0 mM, NADP+1.0 mM, UDPGA 0.5 mM, PAPS 0.6 mM and GSH 1 mM). The test compounds were incubated at with mouse liver microsomes with cofactors. After 1 h incubation at 37° C., the reaction was stopped by addition of stop solution (ice cold acetonitrile). The samples were centrifuged and supernatants were analysed using LC/MS/MS. The Percent of parent test compounds remaining after 1 h of incubation time was calculated with respect to the peak areas of at time 0.

[8] = tested on: acetyl-Histone H4; assay: Histone hyperacetylation in Hela cells (Western Blot); format: cell-based; design: key: represented by the symbol ‘+’ which indicates the relative extent of modulation; ++: represented by the symbol ‘+’ which indicates the relative extent of modulation; +++: represented by the symbol ‘+’ which indicates the relative extent of modulation; ++++: represented by the symbol ‘+’ which indicates the relative extent of modulation; conditions: 24 hrs, 0.03-3.0 μM
Method: (§4) HeLa Cells were seeded at a density of 0.4×10^6 Cells/well into 6 well plates and incubated for 24 h The compounds were tested at 5 different concentrations (0.03, 0.1, 0.3, 1.0, 3.0 μM) with corresponding control. After 24 hrs cells were lysed and histone proteins were extracted as per established protocols and the extract was used for measuring H3 and H4 hyperacetylation by Western Blot using Anti-acetyl-Histone H3 and Anti-acetyl-Histone H4 (Millipore, USA) antibodies.

[9] = tested on: acetyl-Histone H3; assay: as above; format: cell-based; design: key: represented by the symbol ‘+’ which indicates the relative extent of modulation; ++: represented by the symbol ‘+’ which indicates the relative extent of modulation; +++: represented by the symbol ‘+’ which indicates the relative extent of modulation; ++++: represented by the symbol ‘+’ which indicates the relative extent of modulation; conditions: 24 hrs, 0.03-3.0 μM
Method: as §4

[10] = biological target: T1, CYP 2C9 (Homo sapiens, UniProt P11712); assay: Cytochrome-P450 isoforms liability determination; format: in vitro ADME
T1 construct: purchased
T1 sequence (P11712 whole entry, canonical isoform): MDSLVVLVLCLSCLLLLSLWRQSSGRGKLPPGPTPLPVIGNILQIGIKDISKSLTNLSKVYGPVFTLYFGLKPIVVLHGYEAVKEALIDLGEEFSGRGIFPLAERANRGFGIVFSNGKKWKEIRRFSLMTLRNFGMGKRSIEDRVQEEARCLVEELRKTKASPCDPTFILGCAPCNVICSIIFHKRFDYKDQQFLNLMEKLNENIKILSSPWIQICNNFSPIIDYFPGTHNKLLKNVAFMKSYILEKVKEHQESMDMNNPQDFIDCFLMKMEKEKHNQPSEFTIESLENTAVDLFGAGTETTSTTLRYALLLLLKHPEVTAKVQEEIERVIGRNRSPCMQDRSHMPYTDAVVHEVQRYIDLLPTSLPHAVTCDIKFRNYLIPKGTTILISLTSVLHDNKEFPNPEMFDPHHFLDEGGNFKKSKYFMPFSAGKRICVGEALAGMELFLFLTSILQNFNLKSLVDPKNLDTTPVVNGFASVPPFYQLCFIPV
Method: (§5) To determine the test compound liability towards Human cytochrome 450 (hCYP450) Isoforms fluorescence based screening kits.
(§6) Brief procedure: 2× test compounds were prepared by dilution with deionized water. A serial dilution of the test compound was done. 2× solution of known inhibitor were used as a positive control. 40 μL of the 2× solution that is prepared was added to the desired wells. Two replicates were included for every compound. 50 μL of the Master premix (premix of CYP450 Baclosomes, reagents and regenerating system) was dispensed into each well. The plate was incubated for 20 min at room temperature to allow the compounds to interact with the CYP450enzymes. The reaction was started by adding 10 μL of the substrate and NADP^+ mixture. The plate was incubated for the desired amount of time, and then 10 μL of stop reagent was added to each well to quench the reaction. The fluorescence was measured in the fluorescent plate reader at excitation and emission wavelengths as recommended, depending on the substrate used.

[11] = biological target: T2, CYP 2D6 (Homo sapiens, UniProt P10635); assay: Cytochrome-P450 isoforms liability determination; format: in vitro ADME
T2 construct: purchased
T2 sequence (P10635 whole entry, canonical isoform): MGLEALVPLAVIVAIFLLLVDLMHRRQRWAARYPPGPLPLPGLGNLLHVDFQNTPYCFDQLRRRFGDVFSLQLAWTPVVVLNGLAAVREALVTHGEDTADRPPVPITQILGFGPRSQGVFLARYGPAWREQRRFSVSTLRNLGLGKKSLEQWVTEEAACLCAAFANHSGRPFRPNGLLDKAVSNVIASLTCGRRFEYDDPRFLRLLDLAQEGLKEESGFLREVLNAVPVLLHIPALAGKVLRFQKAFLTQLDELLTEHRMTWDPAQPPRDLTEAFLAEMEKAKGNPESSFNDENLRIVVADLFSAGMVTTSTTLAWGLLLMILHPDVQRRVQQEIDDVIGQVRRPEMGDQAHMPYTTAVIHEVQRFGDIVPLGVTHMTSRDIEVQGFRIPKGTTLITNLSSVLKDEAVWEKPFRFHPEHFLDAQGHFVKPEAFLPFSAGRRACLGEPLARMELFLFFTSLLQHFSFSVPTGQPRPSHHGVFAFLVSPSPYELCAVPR
Method: as §5, §6

[12] = biological target: T3, CYP 1A2 (Homo sapiens, UniProt P05177); assay: Cytochrome-P450 isoforms liability determination; format: in vitro ADME
T3 construct: purchased
T3 sequence (P05177 1-516): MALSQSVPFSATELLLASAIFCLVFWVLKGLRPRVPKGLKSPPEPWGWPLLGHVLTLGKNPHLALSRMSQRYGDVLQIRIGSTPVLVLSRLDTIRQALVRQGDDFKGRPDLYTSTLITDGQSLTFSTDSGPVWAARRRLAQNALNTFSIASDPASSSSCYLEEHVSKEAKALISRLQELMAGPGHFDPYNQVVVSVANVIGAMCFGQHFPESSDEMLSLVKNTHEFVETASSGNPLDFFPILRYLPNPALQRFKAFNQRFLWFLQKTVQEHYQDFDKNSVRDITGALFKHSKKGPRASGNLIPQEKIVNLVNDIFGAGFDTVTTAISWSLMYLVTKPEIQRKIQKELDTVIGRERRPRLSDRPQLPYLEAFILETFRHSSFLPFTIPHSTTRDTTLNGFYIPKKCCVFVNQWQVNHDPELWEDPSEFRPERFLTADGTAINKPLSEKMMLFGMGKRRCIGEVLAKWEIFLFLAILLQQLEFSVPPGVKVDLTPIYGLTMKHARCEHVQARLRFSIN
Method: as §5, §6

[13] = biological target: T4, CYP 2C19 (Homo sapiens, UniProt P33261); assay: Cytochrome-P450 isoforms liability determination; format: in vitro ADME
T4 construct: purchased
T4 sequence (P33261 whole entry, canonical isoform): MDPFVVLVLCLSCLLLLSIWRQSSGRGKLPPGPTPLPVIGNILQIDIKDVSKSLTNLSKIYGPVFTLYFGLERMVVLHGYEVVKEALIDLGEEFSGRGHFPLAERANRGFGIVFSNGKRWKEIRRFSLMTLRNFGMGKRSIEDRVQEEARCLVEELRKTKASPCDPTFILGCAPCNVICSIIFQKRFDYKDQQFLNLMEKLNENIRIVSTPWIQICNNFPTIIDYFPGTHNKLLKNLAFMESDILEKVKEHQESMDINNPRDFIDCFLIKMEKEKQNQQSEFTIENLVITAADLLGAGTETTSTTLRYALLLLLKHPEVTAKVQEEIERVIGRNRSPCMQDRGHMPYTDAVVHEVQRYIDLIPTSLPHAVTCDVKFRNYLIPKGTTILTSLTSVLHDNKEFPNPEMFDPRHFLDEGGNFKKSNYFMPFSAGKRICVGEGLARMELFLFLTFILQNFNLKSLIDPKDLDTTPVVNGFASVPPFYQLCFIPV
Method: as §5, §6

[14] = PC-3, Table 1, MTT, 48 hours, read-out: Cell growth inhibition (GI50 in μM) PC-3
[15] = PC-3, Table 9, Prostate, read-out: Anti-proliferative activity (GI50) PC-3
[16] = A549, Table 1, MTT, 48 hours, read-out: Cell growth inhibition (GI50 in μM) A549
[17] = A549, Table 9, Lung, read-out: Anti-proliferative activity (GI50) A549
[18] = HT-29, Table 9, Colon, read-out: Anti-proliferative activity (GI50) HT-29
[19] = PANC-1, Table 9, Pancreas, read-out: Anti-proliferative activity (GI50) PANC-1
[20] = MCF7, Table 9, Breast, read-out: Anti-proliferative activity (GI50) MCF-7
[21] = fluorescence based kit, read-out: CYP liability (IC50 in μM) CYP 2C9
[22] = fluorescence based kit, read-out: CYP liability (IC50 in μM) CYP 2D6
[23] = fluorescence based kit, read-out: CYP liability (IC50 in μM) CYP 1A2
[24] = fluorescence based kit, read-out: CYP liability (IC50 in μM) CYP 2C19
[25] = HT-29, Table 1, MTT, 48 hours, read-out: Cell growth inhibition (GI50 in μM) HT-29

Compound | GI50 [1, 14] [µM] | GI50 [1, 15] [µM] | GI50 [2, 16] [µM] | GI50 [2, 17] [µM] | GI50 [3, 18] [µM] | GI50 [5, 19] [µM] | GI50 [6, 20] [µM] | % Stable compounds after 1 hr incubation [7] [%] | IC50 [10, 21] [µM] | IC50 [11, 22] [µM] | IC50 [12, 23] [µM] | IC50 [13, 24] [µM] | GI50 [3, 25] [µM] | GI50 ([4]; Table 9, Cervix) [µM] | Target modulation: H4 acetylation [8] | Target modulation: H3 acetylation [9] | also measured
O=C(CCCCCCC(=O)Nc1ccccc1)NO [SAHA, Suberoylanilide Hydroxamic Acid, reference compound] |  |  |  |  |  |  |  | 67 |  |  |  |  |  |  | +++ | +++ | GI50 ([1]; PC-3, read-out: Anti-proliferative activity (GI50) PC-3): 8.3 ± 0.6 µM; GI50 ([2]; A549, read-out: Anti-proliferative activity (GI50) A549): 5.9 ± 2.4 µM; GI50 ([3]; HT-29, read-out: Anti-proliferative activity (GI50) HT-29): 3.6 ± 2.6 µM; GI50 [4]: 6 ± 5.3 µM; GI50 ([5]; PANC-1, read-out: Anti-proliferative activity (GI50) PANC-1): 21.9 µM; GI50 ([6]; MCF7, read-out: Anti-proliferative activity (GI50) MCF-7): 5.5 ± 1.2 µM; IC50 [10]: 29.7 µM; IC50 [11]: 3.6 µM; IC50 [12]: 9.7 µM; IC50 [13]: 2.9 µM
O=C(NO)c1ccc(Cn2cc(-c3ccc(CN4CCCC4)cc3)nn2)cc1 [Example 8, N-Hydroxy-4-[4-(4-pyrrolidin-1-ylmethyl-phenyl)-[1,2,3]triazol-1-ylmethyl]-benzamide] | 16.8 ± 8.8 | 4.1 ± 0.38 | 4.1 ± 0.6 | 3.1 ± 1.99 | 1.3 ± 0.33 | 1.3 | 2.6 ± 1.26 | 100 | > 60 | 26 | > 60 | > 60 | 0.2 | 1.1 ± 0.49 | ++++ | +++ | 
CN(C)Cc1ccc(-c2cn(Cc3ccc(/C=C/C(=O)NO)cc3)nn2)cc1 [Example 21] | 11.3 ± 8.3 | 4.8 ± 1.4 | 2.2 ± 2.3 | 2.2 ± 2.22 | 2.1 ± 0.46 | 1.4 | 5.5 ± 1.2 | 65 | > 60 | > 60 | > 60 | > 60 |  | 1.1 ± 0.73 | ++++ | +++ | 

More lines, main results first:

GI50 [1, 14] [µM] | GI50 [1, 15] [µM] | GI50 [2, 16] [µM] | GI50 [2, 17] [µM] | GI50 [3, 18] [µM] | GI50 [5, 19] [µM] | GI50 [6, 20] [µM] | % Stable compounds after 1 hr incubation [7] [%] | IC50 [10, 21] [µM] | IC50 [11, 22] [µM] | IC50 [12, 23] [µM] | IC50 [13, 24] [µM] | GI50 [3, 25] [µM] | Compound | GI50 ([4]; Table 9, Cervix) [µM] | Target modulation: H4 acetylation [8] | Target modulation: H3 acetylation [9] | also measured
22 ± 5.4 | 13.4 ± 3.3 | 5 ± 1.6 | 4.5 ± 2.33 | 1.5 ± 0.65 | 6.6 | 5.7 ± 1.62 | 100 | > 60 | > 60 | > 60 | > 60 |  | O=C(NO)c1ccc(Cn2cc(-c3ccc(CN4CCOCC4)cc3)nn2)cc1 [Example 9, N-Hydroxy-4-[4-(4-morpholin-4-ylmethyl-phenyl)-[1,2,3]triazol-1-ylmethyl]-benzamide] | 1.2 ± 0.22 | ++++ | ++++ | 
12.6 ± 7.6 | 3.5 ± 2.7 | 1.7 ± 1 | 1.58 ± 1.1 | 0.15 ± 0.13 | 1.03 | 3.5 ± 2.6 | 98 | > 60 | 13.2 | > 60 | > 60 | 0.04 | O=C(/C=C/c1ccc(Cn2cc(-c3ccc(CN4CCCC4)cc3)nn2)cc1)NO [Example 16, N-Hydroxy-3-{4-[4-(4-pyrrolidin-1-ylmethyl-phenyl)-[1,2,3]triazol-1-ylmethyl]-phenyl}-acrylamide] | 0.42 ± 0.15 | ++++ | ++ | 
4 ± 3.9 | 1.7 ± 1.02 | 2.5 ± 0.8 | 2 ± 1.52 | 0.4 ± 0.13 | 4 | 2.1 ± 2.63 | 57 | 51.5 | > 60 | > 60 | > 60 | 0.2 | O=C(/C=C/c1cccc(Cn2cc(-c3ccc(CN4CCOCC4)cc3)nn2)c1)NO [Example 25, N-Hydroxy-3-{3-[4-(4-morpholin-4-ylmethyl-phenyl)-[1,2,3]triazol-1-ylmethyl]-phenyl}-acrylamide hydrochloride] | 0.4 ± 0.28 | ++++ | ++++ | 
